Results: paper PMC4688987, “Characterization of Toxoplasma gondii glyoxalase 1 and evaluation of inhibitory effects of curcumin on the enzyme and parasite cultures” (Parasites & Vectors, 2015)

Molecular target: T1, rTgGlo1 (recombinant Toxoplasma gondii glyoxalase 1) (Toxoplasma gondii, UniProt A0A7J6JV59)
T1 construct: gene TGRH88_062270; full-length ORF (1008 nt, printed 336 residues) in pRSETb, His-tagged, E. coli BL21(DE3)pLysS; S-hexylglutathione-agarose then Ni-NTA; two glyoxalase domains 20-167 and 181-325
T1 sequence (A0A7J6JV59 1-336): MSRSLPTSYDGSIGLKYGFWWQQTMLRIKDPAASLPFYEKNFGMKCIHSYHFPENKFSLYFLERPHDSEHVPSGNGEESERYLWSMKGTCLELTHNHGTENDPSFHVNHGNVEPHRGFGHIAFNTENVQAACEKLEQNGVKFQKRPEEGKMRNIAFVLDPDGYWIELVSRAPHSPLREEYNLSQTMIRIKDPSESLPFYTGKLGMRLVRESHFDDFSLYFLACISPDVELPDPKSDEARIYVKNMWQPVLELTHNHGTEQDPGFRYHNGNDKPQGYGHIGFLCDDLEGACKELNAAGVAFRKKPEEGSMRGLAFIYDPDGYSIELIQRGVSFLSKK
Experiment: spectrophotometric at […] nm, Lineweaver-Burk
Assay type: biochemical

COc1cc(/C=C/C(=O)CC(=O)/C=C/c2ccc(O)c(OC)c2)ccc1O [curcumin] gave a Ki of 12.9 ± 0.5 µM.
